Assay [1] deals with NB-4. The experiment in a line: Induction of differentiation of human NB4 cells assessed as increase in CD11b positive cells at 2.5 uM by flow cytometric analysis relative to control. It is filed as functional. For orientation: A flow cytometer gives signals particle by particle.
Assay [2] relates to NB-4. The experiment in a line: Induction of differentiation of human NB4 cells assessed as increase in CD11b positive cells at 5 uM by flow cytometric analysis relative to control. The format is functional.
Assay [3] has as its system NB-4. Nature of the assay: Induction of differentiation of human NB4 cells assessed as increase in CD11b positive cells at 1.25 uM by flow cytometric analysis relative to control. The format is functional, cell-based.
Assay [4] has as its target T1, Lysine-specific histone demethylase 1A (Homo sapiens, UniProt O60341).
In assay [5] the test system is NB-4. The experiment in a line: Induction of differentiation of human NB4 cells assessed as increase in CD11b positive cells at 0.5 to 5 uM by flow cytometric analysis. It is filed as functional, cell-based.
The target in assay [6] is T1, Lysine-specific histone demethylase 1A. The source holds these as a separate data set.
The target is the same in assay [7]. Nature of the assay: Binding affinity to fluorescently labeled recombinant human LSD1 expressed in Escherichia coli by MST analysis.
Assay [8] shares this target. Particulars: 4.1 uM.
The target in assay [9] is T2, Amine oxidase [flavin-containing] A (Homo sapiens, UniProt P21397).
T2 sequence (P21397 whole entry): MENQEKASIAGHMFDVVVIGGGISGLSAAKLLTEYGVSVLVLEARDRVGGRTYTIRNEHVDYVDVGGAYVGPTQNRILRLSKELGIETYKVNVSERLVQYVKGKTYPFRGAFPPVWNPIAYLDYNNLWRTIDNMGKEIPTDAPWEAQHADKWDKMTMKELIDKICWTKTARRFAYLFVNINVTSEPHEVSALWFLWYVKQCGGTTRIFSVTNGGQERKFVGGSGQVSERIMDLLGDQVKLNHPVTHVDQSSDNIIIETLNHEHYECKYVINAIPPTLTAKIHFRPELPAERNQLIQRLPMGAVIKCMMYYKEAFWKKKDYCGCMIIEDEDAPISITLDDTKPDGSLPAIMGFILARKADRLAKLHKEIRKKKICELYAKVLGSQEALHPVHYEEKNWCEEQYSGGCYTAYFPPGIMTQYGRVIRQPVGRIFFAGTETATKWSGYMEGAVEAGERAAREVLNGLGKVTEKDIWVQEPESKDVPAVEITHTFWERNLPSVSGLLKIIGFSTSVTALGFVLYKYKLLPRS
The experiment in a line: Inhibition of recombinant full length N-terminal FLAG-tagged human MAO-A expressed in baculovirus infected Sf9 insect cells using […] as substrate after 1 hr by spectrometric method.

The target in assay [10] is T3, Amine oxidase [flavin-containing] B (Homo sapiens, UniProt P27338).
T3 sequence (P27338 whole entry): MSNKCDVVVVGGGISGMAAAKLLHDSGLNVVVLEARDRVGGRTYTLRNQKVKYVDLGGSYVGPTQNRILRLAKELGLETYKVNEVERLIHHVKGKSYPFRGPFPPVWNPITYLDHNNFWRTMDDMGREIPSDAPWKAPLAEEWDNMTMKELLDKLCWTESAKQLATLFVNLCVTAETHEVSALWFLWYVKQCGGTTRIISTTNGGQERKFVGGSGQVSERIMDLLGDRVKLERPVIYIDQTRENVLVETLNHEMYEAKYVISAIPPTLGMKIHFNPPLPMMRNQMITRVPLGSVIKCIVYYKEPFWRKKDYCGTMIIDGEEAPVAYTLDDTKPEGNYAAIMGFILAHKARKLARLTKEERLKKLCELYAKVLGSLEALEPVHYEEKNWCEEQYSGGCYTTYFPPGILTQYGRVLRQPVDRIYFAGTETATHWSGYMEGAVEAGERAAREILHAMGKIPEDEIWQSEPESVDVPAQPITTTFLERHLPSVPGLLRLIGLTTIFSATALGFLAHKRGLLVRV
Nature of the assay: Inhibition of recombinant full length N-terminal FLAG-tagged human MAO-B expressed in baculovirus infected Sf9 insect cells using […] as substrate after 1 hr by spectrometric method.

The species entered for assay [11] is Homo sapiens.
Assay [12] is filed under the species Homo sapiens. This is another data set of the same source.
The subject of assay [13] is NB-4. The experiment in a line: Induction of differentiation of human NB4 cells assessed as increase in CD11b positive cells at 10 uM by flow cytometric analysis relative to control. It is filed as functional.
Assay [14] deals with T1, Lysine-specific histone demethylase 1A. Nature of the assay: Inhibition of LSD1 in HEK293 cells assessed as increase in H3K4me2 levels at 2.5 uM after 24 hrs by Western blot method. The format is cell-based. In general terms: A western blot detects proteins with antibodies after separation by electrophoresis.
The target is the same in assay [15]. The experiment in a line: Inhibition of LSD1 in HEK293 cells assessed as increase in H3K4me1 levels at 10 uM after 24 hrs by Western blot method. It is filed as cell-based.

Active and inactive are the calls of the source. No cut-off for these calls is given here.

The IC50 is the point on the concentration scale where inhibition reaches its midpoint. One may read the Kd as the concentration at which binding is half-saturated.

With `COc1cc(C=C2C(=O)NC(=O)N(c3ccc(Br)cc3)C2=O)cc(OC)c1O`, the result in the assay on NB-4 [1], in the assay on NB-4 [2] and with NB-4 [3] was Active. Also, the half-inhibitory concentration (IC50) in [4] turned out to be 0.55 µM.

Take `CN1CCN(C(=O)CN[C@H]2C[C@@H]2c2ccc(OCc3ccccc3)cc2)CC1`: in the assay on NB-4 [5], the outcome was Active.

The compound `COc1ccc(C=C2C(=O)NC(=O)N(c3ccc(Br)cc3)C2=O)cc1OC` yielded an IC50 in assay [4] of 2.8 µM.

Turning to `Cc1ccccc1N1C(=O)NC(=O)C(=Cc2cc3ccccc3[nH]2)C1=O`, half-maximal inhibition in assay [4] (IC50) required 4.4 µM.

Regarding `Cc1ccc(N2C(=O)NC(=O)C(=Cc3cc4ccccc4[nH]3)C2=O)cc1`, the outcome in the assay on NB-4 [5] was Active. In [4], this compound had an IC50 of 1.1 µM.

In the case of `O=C1NC(=O)N(c2ccc(Br)cc2)C(=O)C1=Cc1ccc(O)c(O)c1`, the Ratio IC50 in assay [6] stood at 12. Moreover, the outcome with NB-4 [5] was Active. The IC50 in assay [4] was determined as 0.3 µM.

Turning to `COc1ccc(N2C(=O)NC(=O)/C(=C\c3ccc(N4CCOCC4)c(F)c3)C2=O)cc1`, the IC50 in assay [4] worked out at 18.2 µM.

In the case of `COc1ccc(C=C2C(=O)NC(=O)N(c3ccc(Br)cc3)C2=O)cc1O`, 3.6 µM corresponded to half-maximal inhibition in assay [4] (IC50).

For the compound `O=C1NC(=S)N(c2ccc(Br)cc2)C(=O)C1=Cc1ccc(O)c(O)c1`, in assay [7], the equilibrium dissociation constant (Kd) was 1.1 µM. Also, the Activity is 98.2% in assay [8], 12.5% in the assay with NB-4 [1], 36.6% in the assay with NB-4 [2] and 89.7% with NB-4 [13]. Moreover, the half-inhibitory concentration (IC50) in assay [9] was 72.5 µM; in assay [10] it was more than 200 µM; in assay [4] it was 0.41 µM. Besides, the Ratio IC50 in the assay filed under Homo sapiens [11] was 177; in the assay filed under Homo sapiens [12] it was more than 487. Moreover, the inhibition result in assay [14] and in assay [15] was “Active” throughout.

Turning to `Cc1ccc(N2C(=O)NC(=O)C(=Cc3cccc(O)c3)C2=O)cc1`, the IC50 in assay [4] was found to be 23 µM.

Consider `COc1cc(C=C2C(=O)NC(=O)N(c3ccc(Br)cc3)C2=O)ccc1O`, for which the result with NB-4 [1], in the assay on NB-4 [2] and with NB-4 [3] was Active. Further, the midpoint of inhibition in assay [4], the IC50, lay at 0.87 µM.

On to `COc1ccc(N2C(=O)NC(=O)C(=Cc3ccc(O)c(O)c3)C2=O)cc1`, for which the half-inhibitory concentration (IC50) in assay [4] came out at 3.1 µM.

In [4], `CCc1ccc(N2C(=O)NC(=O)/C(=C\c3cc4ccccc4[nH]3)C2=O)cc1` registered a concentration for half-maximal inhibition (IC50) of 6.42 µM.

Consider `COc1ccc(CC2C(=O)NC(=O)N(c3ccc(Br)cc3)C2=O)cc1OC` (configuration not stated), for which the IC50 in [4] is more than 75 µM.

In turn, `COc1ccc(C=C2C(=O)NC(=O)N(c3ccc(Br)cc3)C2=O)c(OC)c1OC` had a concentration for half-maximal inhibition (IC50) in assay [4] of 3.6 µM.

In the case of `N#Cc1ccc(N2C(=O)NC(=O)C(=Cc3ccc(O)c(O)c3)C2=O)cc1`, the outcome in the assay with NB-4 [5] was Active. Further, the half-maximal inhibitory concentration (IC50) in assay [4] was 1.2 µM.

The values above are taken from ChEMBL document CHEMBL4229552, “Optimization of 5-arylidene barbiturates as potent, selective, reversible LSD1 inhibitors for the treatment of acute promyelocytic leukemia” (Bioorg Med Chem, 2018).
